In the CheMixHub viscosity set:

Assay: xn = mol fraction of the nth substance listed

Cc1ncc(C[n+]2csc(CCO)c2C)c(N)n1.Cl.[Cl-] + O
Settings | viscosity [mPa·s]
293.15 K, 101 kPa, x1 = 0.00036 | 1.014
293.15 K, 101 kPa, x1 = 0.00072 | 1.027
293.15 K, 101 kPa, x1 = 0.00108 | 1.041
293.15 K, 101 kPa, x1 = 0.00144 | 1.057
293.15 K, 101.3 kPa, x1 = 0.000445 | 1.015
293.15 K, 101.3 kPa, x1 = 0.000886 | 1.029
293.15 K, 101.3 kPa, x1 = 0.00177 | 1.063
293.15 K, 101.3 kPa, x1 = 0.002215 | 1.08
298.15 K, 101 kPa, x1 = 0.00036 | 0.9013
298.15 K, 101 kPa, x1 = 0.000364 | 0.9024
298.15 K, 101 kPa, x1 = 0.000385 | 0.914
298.15 K, 101 kPa, x1 = 0.000657 | 0.914
298.15 K, 101 kPa, x1 = 0.00072 | 0.9129
298.15 K, 101 kPa, x1 = 0.000731 | 0.929
298.15 K, 101 kPa, x1 = 0.000952 | 0.9244
298.15 K, 101 kPa, x1 = 0.00107 | 0.941
298.15 K, 101 kPa, x1 = 0.00108 | 0.9266
298.15 K, 101 kPa, x1 = 0.00125 | 0.9372
298.15 K, 101 kPa, x1 = 0.00144 | 0.9406
298.15 K, 101 kPa, x1 = 0.00145 | 0.96
298.15 K, 101 kPa, x1 = 0.00155 | 0.9488
298.15 K, 101 kPa, x1 = 0.001658 | 0.9532
298.15 K, 101 kPa, x1 = 0.001695 | 0.9545
298.15 K, 101 kPa, x1 = 0.001856 | 0.959
298.15 K, 101 kPa, x1 = 0.001922 | 0.98
298.15 K, 101 kPa, x1 = 0.002519 | 0.9786
298.15 K, 101 kPa, x1 = 0.002881 | 1.013
298.15 K, 101 kPa, x1 = 0.003713 | 1.05
298.15 K, 101 kPa, x1 = 0.003828 | 1.034
298.15 K, 101 kPa, x1 = 0.004291 | 1.055
298.15 K, 101 kPa, x1 = 0.004534 | 1.083
298.15 K, 101 kPa, x1 = 0.005245 | 1.097
298.15 K, 101 kPa, x1 = 0.005408 | 1.111
298.15 K, 101 kPa, x1 = 0.007149 | 1.185
298.15 K, 101 kPa, x1 = 0.00796 | 1.228
298.15 K, 101 kPa, x1 = 0.009056 | 1.254
298.15 K, 101 kPa, x1 = 0.009864 | 1.281
298.15 K, 101.3 kPa, x1 = 0.000445 | 0.902
298.15 K, 101.3 kPa, x1 = 0.000886 | 0.916
298.15 K, 101.3 kPa, x1 = 0.00133 | 0.931
298.15 K, 101.3 kPa, x1 = 0.00177 | 0.947
298.15 K, 101.3 kPa, x1 = 0.002215 | 0.963
303.15 K, 101 kPa, x1 = 0.00036 | 0.8078
303.15 K, 101 kPa, x1 = 0.00072 | 0.8185
303.15 K, 101 kPa, x1 = 0.00108 | 0.8322
303.15 K, 101 kPa, x1 = 0.00144 | 0.8443
303.15 K, 101.3 kPa, x1 = 0.000445 | 0.808
303.15 K, 101.3 kPa, x1 = 0.000886 | 0.822
303.15 K, 101.3 kPa, x1 = 0.00133 | 0.836
303.15 K, 101.3 kPa, x1 = 0.00177 | 0.85
303.15 K, 101.3 kPa, x1 = 0.002215 | 0.864
308.15 K, 101 kPa, x1 = 0.00036 | 0.729
308.15 K, 101 kPa, x1 = 0.000364 | 0.7301
308.15 K, 101 kPa, x1 = 0.000657 | 0.7393
308.15 K, 101 kPa, x1 = 0.00072 | 0.7391
308.15 K, 101 kPa, x1 = 0.000952 | 0.7485
308.15 K, 101 kPa, x1 = 0.00108 | 0.7506
308.15 K, 101 kPa, x1 = 0.00125 | 0.7576
308.15 K, 101 kPa, x1 = 0.00144 | 0.7631
308.15 K, 101 kPa, x1 = 0.00155 | 0.768
308.15 K, 101 kPa, x1 = 0.001658 | 0.7726
308.15 K, 101 kPa, x1 = 0.001695 | 0.7711
308.15 K, 101 kPa, x1 = 0.001856 | 0.7772
308.15 K, 101 kPa, x1 = 0.002519 | 0.8005
308.15 K, 101 kPa, x1 = 0.003828 | 0.837
308.15 K, 101 kPa, x1 = 0.004291 | 0.8515
308.15 K, 101 kPa, x1 = 0.005245 | 0.8799
308.15 K, 101.3 kPa, x1 = 0.000445 | 0.73
308.15 K, 101.3 kPa, x1 = 0.000886 | 0.743
308.15 K, 101.3 kPa, x1 = 0.00177 | 0.77
308.15 K, 101.3 kPa, x1 = 0.002215 | 0.783
313.15 K, 101 kPa, x1 = 0.00036 | 0.6623
313.15 K, 101 kPa, x1 = 0.00072 | 0.6722
313.15 K, 101 kPa, x1 = 0.00108 | 0.6831
313.15 K, 101 kPa, x1 = 0.00144 | 0.6947
313.15 K, 101.3 kPa, x1 = 0.000445 | 0.664
313.15 K, 101.3 kPa, x1 = 0.000886 | 0.676
313.15 K, 101.3 kPa, x1 = 0.00133 | 0.689
313.15 K, 101.3 kPa, x1 = 0.00177 | 0.702
313.15 K, 101.3 kPa, x1 = 0.002215 | 0.713
318.15 K, 101 kPa, x1 = 0.000364 | 0.6037
318.15 K, 101 kPa, x1 = 0.000657 | 0.6116
318.15 K, 101 kPa, x1 = 0.000952 | 0.6196
318.15 K, 101 kPa, x1 = 0.00125 | 0.6275
318.15 K, 101 kPa, x1 = 0.00155 | 0.6343
318.15 K, 101 kPa, x1 = 0.001658 | 0.6377
318.15 K, 101 kPa, x1 = 0.001695 | 0.6389
318.15 K, 101 kPa, x1 = 0.001856 | 0.6413
318.15 K, 101 kPa, x1 = 0.002519 | 0.6591
318.15 K, 101 kPa, x1 = 0.003828 | 0.6919
318.15 K, 101 kPa, x1 = 0.005245 | 0.7256
318.15 K, 101.3 kPa, x1 = 0.000445 | 0.606
318.15 K, 101.3 kPa, x1 = 0.000886 | 0.618
318.15 K, 101.3 kPa, x1 = 0.00133 | 0.63
318.15 K, 101.3 kPa, x1 = 0.00177 | 0.642
318.15 K, 101.3 kPa, x1 = 0.002215 | 0.653
